# Measured values as given in paper PMC11470957, “Principles of paralog-specific targeted protein degradation engaging the C-degron E3 KLHDC2” (Nature Communications, 2024).
# Values joined by “and” are separate entries in the source; they are usually repeats but may differ in a detail not shown here. Equal entries are not always repeated.
# Legend:
# [1] = target: T1, KLHDC2 (Homo sapiens, UniProt Q9Y2U9); test: Western blot of KLHDC2 levels after cellular dosing
# T1 sequence (Q9Y2U9 1-406): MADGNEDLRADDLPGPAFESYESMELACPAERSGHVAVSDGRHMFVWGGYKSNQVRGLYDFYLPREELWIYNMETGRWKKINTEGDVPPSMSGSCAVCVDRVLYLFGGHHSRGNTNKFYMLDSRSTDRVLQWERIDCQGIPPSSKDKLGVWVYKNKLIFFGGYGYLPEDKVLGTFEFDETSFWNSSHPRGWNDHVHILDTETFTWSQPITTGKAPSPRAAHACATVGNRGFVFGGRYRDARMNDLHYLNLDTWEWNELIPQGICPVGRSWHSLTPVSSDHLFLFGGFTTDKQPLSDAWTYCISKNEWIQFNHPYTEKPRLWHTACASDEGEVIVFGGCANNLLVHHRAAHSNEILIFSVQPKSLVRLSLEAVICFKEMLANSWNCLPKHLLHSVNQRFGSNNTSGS
# [2] = tested on: U2OS KLHDC2 KO/rescue and KO cells (proteome); test: TMT-based total proteomics of dosed U2OS cells; conditions: 1 μM, 24 h
# [3] = tested on: SKBR3, AU565, RD, SKES1, A673 cells; test: Cell Titer-Glo Luminescent Cell Viability assay; conditions: 24 h, read-out: IC50, cell viability
structure (smiles),measurement,setting,value
COC(=O)CNC(=O)Cc1csc(-c2ccc3cccc(OCCN4CCN(C(=O)C[C@@H]5N=C(c6ccc(Cl)cc6)c6c(sc(C)c6C)-n6c(C)nnc65)CC4)c3c2)n1 [SJ46420],KLHDC2 level relative to DMSO (100%),"[1]; 22Rv1, 0.16µM, 24 h, Fig S6f",167 +/- 17%
same,KLHDC2 level relative to DMSO (100%),"[1]; 22Rv1, 0.31µM, 24 h, Fig S6f",171 +/- 10%
same,KLHDC2 level relative to DMSO (100%),"[1]; 22Rv1, 0.63µM, 24 h, Fig S6f",179 +/- 13%
same,KLHDC2 level relative to DMSO (100%),"[1]; 22Rv1, 1.3µM, 24 h, Fig S6f",199 +/- 27%
same,KLHDC2 level relative to DMSO (100%),"[1]; 22Rv1, 2.5µM, 24 h, Fig S6f",170 +/- 35%
same,KLHDC2 level relative to DMSO (100%),"[1]; 22Rv1, 5µM, 24 h, Fig S6f",238 +/- 26%
same,KLHDC2 level relative to DMSO (100%),"[1]; 22Rv1, 10µM, 24 h, Fig S6f",356 +/- 37%
same,KLHDC2 level relative to DMSO (100%),"[1]; 293T, 2.5µM, 24 h, Fig S6a",130 +/- 3.8%
same,KLHDC2 level relative to DMSO (100%),"[1]; 293T, 5µM, 24 h, Fig S6a",132 +/- 4.4%
same,KLHDC2 level relative to DMSO (100%),"[1]; AU565, 0.2µM, 8 h, Fig S6c",96 +/- 4.5%
same,KLHDC2 level relative to DMSO (100%),"[1]; AU565, 1µM, 8 h, Fig S6c",102 +/- 8.6%
same,KLHDC2 level relative to DMSO (100%),"[1]; AU565, 5µM, 8 h, Fig S6c",104 +/- 6.7%
same,"KLHDC2 level, Western blot quantification","[1]; Fig 6b, KO/Rescue, 5 uM, DMSO printed 0",0
same,"KLHDC2 level, Western blot quantification (DMSO = 100)","[1]; Fig 6b, U2OS, 5 uM",114.478 and 116.145
same,"KLHDC2 level, Western blot quantification (DMSO = 100)","[1]; Fig 6c, 1 uM",373.51 and 441.349
same,"KLHDC2 level, Western blot quantification (DMSO = 100)","[1]; Fig 6d, 1 uM",1598.67 and 1321.11
same,"KLHDC2 level, Western blot quantification (DMSO = 100)","[1]; Fig 6d, 1uM together with 1uM MLN4924",4337 and 4000.23
same,"KLHDC2 level, Western blot quantification (DMSO = 100)","[1]; Fig S6a, 293T cells, 2.5 uM",127.565 and 133
same,"KLHDC2 level, Western blot quantification (DMSO = 100)","[1]; Fig S6a, 293T cells, 5 uM",128.652 and 135
same,"KLHDC2 level, Western blot quantification (DMSO = 100)","[1]; Fig S6b, MDA-MB468 Cells, 2 uM",157.366 and 160
same,"KLHDC2 level, Western blot quantification (DMSO = 100)","[1]; Fig S6b, MDA-MB468 Cells, 5 uM",170.896 and 175
same,"KLHDC2 level, Western blot quantification (DMSO = 100)","[1]; Fig S6b, MDA-MB468 Cells, 10 uM",190.223 and 200
same,"KLHDC2 level, Western blot quantification (DMSO = 100)","[1]; Fig S6c, AU565 Cells, 0.2 uM",94.0454 and 99.4615
same,"KLHDC2 level, Western blot quantification (DMSO = 100)","[1]; Fig S6c, AU565 Cells, 1 uM",108.13 and 96.9184
same,"KLHDC2 level, Western blot quantification (DMSO = 100)","[1]; Fig S6c, AU565 Cells, 5 uM",108.427 and 99.9384
same,"KLHDC2 level, Western blot quantification (DMSO = 100)","[1]; Fig S6f, 22RV1 KO/rescue Dose Response, 0.156 uM",180 and 155
same,"KLHDC2 level, Western blot quantification (DMSO = 100)","[1]; Fig S6f, 22RV1 KO/rescue Dose Response, 0.313 uM",178 and 164
same,"KLHDC2 level, Western blot quantification (DMSO = 100)","[1]; Fig S6f, 22RV1 KO/rescue Dose Response, 0.625 uM",188 and 170
same,"KLHDC2 level, Western blot quantification (DMSO = 100)","[1]; Fig S6f, 22RV1 KO/rescue Dose Response, 1.25 uM",219 and 180
same,"KLHDC2 level, Western blot quantification (DMSO = 100)","[1]; Fig S6f, 22RV1 KO/rescue Dose Response, 2.5 uM",149 and 192
same,"KLHDC2 level, Western blot quantification (DMSO = 100)","[1]; Fig S6f, 22RV1 KO/rescue Dose Response, 5 uM",256 and 220
same,"KLHDC2 level, Western blot quantification (DMSO = 100)","[1]; Fig S6f, 22RV1 KO/rescue Dose Response, 10uM",382 and 330
same,"KLHDC2 level, Western blot quantification (DMSO = 100)","[1]; Fig S6g, SKBR3 Time course, 1 uM, 2hr",96.2473 and 100.234
same,"KLHDC2 level, Western blot quantification (DMSO = 100)","[1]; Fig S6g, SKBR3 Time course, 1 uM, 4hr",98.547 and 105.246
same,"KLHDC2 level, Western blot quantification (DMSO = 100)","[1]; Fig S6g, SKBR3 Time course, 1 uM, 8hr",108.754 and 118.735
same,"KLHDC2 level, Western blot quantification (DMSO = 100)","[1]; Fig S6g, SKBR3 Time course, 5 uM, 2hr",110.116 and 102.856
same,"KLHDC2 level, Western blot quantification (DMSO = 100)","[1]; Fig S6g, SKBR3 Time course, 5 uM, 4hr",118.1 and 127.234
same,"KLHDC2 level, Western blot quantification (DMSO = 100)","[1]; Fig S6g, SKBR3 Time course, 5 uM, 8hr",125.323 and 132.123
same,"KLHDC2 level, Western blot quantification (DMSO = 100)","[1]; Fig S6i, SKBR3, 5uM",108.759 and 120.207
same,"KLHDC2 level, Western blot quantification (DMSO = 100)","[1]; Fig S6i, U2OS, 5uM",115.927 and 106.939
same,"KLHDC2 level, Western blot quantification (DMSO = 100)","[1]; Fig S6h, U2OS Time course, 5uM, 2hr",102.827 and 100.635
same,"KLHDC2 level, Western blot quantification (DMSO = 100)","[1]; Fig S6h, U2OS Time course, 5uM, 4hr",116.419 and 128.136
same,"KLHDC2 level, Western blot quantification (DMSO = 100)","[1]; Fig S6h, U2OS Time course, 5uM, 8hr",157.536 and 145.235
same,"KLHDC2 level, Western blot quantification (DMSO = 100)","[1]; Fig S6h, U2OS Time course, 5uM, 24hr",121.407 and 133.135
same,"KLHDC2 level, Western blot quantification (DMSO = 100)","[1]; Fig S6d, U2OS KO/rescue Dose Response, 0.156 uM",140 and 155
same,"KLHDC2 level, Western blot quantification (DMSO = 100)","[1]; Fig S6d, U2OS KO/rescue Dose Response, 0.313 uM",192 and 220
same,"KLHDC2 level, Western blot quantification (DMSO = 100)","[1]; Fig S6d, U2OS KO/rescue Dose Response, 0.625 uM",253 and 275
same,"KLHDC2 level, Western blot quantification (DMSO = 100)","[1]; Fig S6d, U2OS KO/rescue Dose Response, 1.25 uM",345 and 380
same,"KLHDC2 level, Western blot quantification (DMSO = 100)","[1]; Fig S6d, U2OS KO/rescue Dose Response, 2.5 uM",540 and 580
same,"KLHDC2 level, Western blot quantification (DMSO = 100)","[1]; Fig S6d, U2OS KO/rescue Dose Response, 5 uM",581 and 620
same,KLHDC2 level relative to DMSO (100%),"[1]; MDA-MB-468, 2.5µM, 24 h, Fig S6b",158 +/- 1.9%
same,KLHDC2 level relative to DMSO (100%),"[1]; MDA-MB-468, 5µM, 24 h, Fig S6b",172 +/- 4.4%
same,KLHDC2 level relative to DMSO (100%),"[1]; MDA-MB-468, 10µM, 24 h, Fig S6b",195 +/- 7.2%
same,KLHDC2 level relative to DMSO (100%),"[1]; PC3, 0.16µM, 24 h, Fig S6e",65 +/- 9.7%
same,KLHDC2 level relative to DMSO (100%),"[1]; PC3, 0.31µM, 24 h, Fig S6e",68 +/- 8.9%
same,KLHDC2 level relative to DMSO (100%),"[1]; PC3, 0.63µM, 24 h, Fig S6e",43 +/- 15%
same,KLHDC2 level relative to DMSO (100%),"[1]; PC3, 1.3µM, 24 h, Fig S6e",48 +/- 8.5%
same,KLHDC2 level relative to DMSO (100%),"[1]; PC3, 2.5µM, 24 h, Fig S6e",50 +/- 8.6%
same,KLHDC2 level relative to DMSO (100%),"[1]; PC3, 5µM, 24 h, Fig S6e",49 +/- 6.1%
same,KLHDC2 level relative to DMSO (100%),"[1]; PC3, 10µM, 24 h, Fig S6e",40 +/- 7.2%
same,KLHDC2 level relative to DMSO (100%),"[1]; SKBR3, 1µM, 2hr, Fig S6g",98 +/- 2.6%
same,KLHDC2 level relative to DMSO (100%),"[1]; SKBR3, 1µM, 4hr, Fig S6g",101 +/- 4.6%
same,KLHDC2 level relative to DMSO (100%),"[1]; SKBR3, 5µM, 2hr, Fig S6g",106 +/- 5.8%
same,KLHDC2 level relative to DMSO (100%),"[1]; SKBR3, 5µM, 4hr, Fig S6g",122 +/- 6.3%
same,KLHDC2 level relative to DMSO (100%),"[1]; SKBR3, 5µM, 8hr, Fig S6g",129 +/- 4.7%
same,KLHDC2 level relative to DMSO (100%),"[1]; U2OS DC2KO (KLHDC2 knockout), 5µM, 24 h, Fig 6b",0 +/- 0%
same,KLHDC2 level relative to DMSO (100%),"[1]; U2OS KO/Rescue, 0.16µM, 24 h, Fig S6d",146 +/- 12%
same,KLHDC2 level relative to DMSO (100%),"[1]; U2OS KO/Rescue, 0.31µM, 24 h, Fig S6d",205 +/- 21%
same,KLHDC2 level relative to DMSO (100%),"[1]; U2OS KO/Rescue, 0.63µM, 24 h, Fig S6d",264 +/- 16%
same,KLHDC2 level relative to DMSO (100%),"[1]; U2OS KO/Rescue, 1µM + co-dosing 1µM MLN4924, 24 h, Fig 6d",4170 +/- 238%
same,KLHDC2 level relative to DMSO (100%),"[1]; U2OS KO/Rescue, 1µM, 24 h, Fig 6c",407 +/- 47%
same,KLHDC2 level relative to DMSO (100%),"[1]; U2OS KO/Rescue, 1µM, 24 h, Fig 6d",1460 +/- 196%
same,KLHDC2 level relative to DMSO (100%),"[1]; U2OS KO/Rescue, 1.3µM, 24 h, Fig S6d",362 +/- 25%
same,KLHDC2 level relative to DMSO (100%),"[1]; U2OS KO/Rescue, 2.5µM, 24 h, Fig S6d",559 +/- 29%
same,KLHDC2 level relative to DMSO (100%),"[1]; U2OS KO/Rescue, 5µM, 24 h, Fig S6d",600 +/- 32%
same,KLHDC2 level relative to DMSO (100%),"[1]; U2OS KO/Rescue, concentration not printed (line after 5µM), 24 h, Fig S6d",710 +/- 67%
same,KLHDC2 level relative to DMSO (100%),"[1]; U2OS, 5µM, 2hr, Fig S6h",101 +/- 1.9%
same,KLHDC2 level relative to DMSO (100%),"[1]; U2OS, 5µM, 4hr, Fig S6h",122+/- 8.2%
same,KLHDC2 level relative to DMSO (100%),"[1]; U2OS, 5µM, 8hr, Fig S6i",111 +/- 6.4%
same,KLHDC2 level relative to DMSO (100%),"[1]; U2OS, 5µM, 8hr, Fig S6h",151 +/- 8.8%
same,KLHDC2 level relative to DMSO (100%),"[1]; U2OS, 5µM, 24hr, Fig S6h",127 +/- 8.2%
same,change of protein levels by TMT proteomics,[2]; KO/rescue U2OS cells,"BRD3 was most substantially downregulated, with lesser reductions in the levels of BRD4 and BRD2"
same,change of protein levels by TMT proteomics,[2]; U2OS KLHDC2 KO cells,not observed
same,IC50,[3],~300 nM
